Assay results reported in ChEMBL document CHEMBL4433266, “Design, synthesis and antimycobacterial activity of benzoxazinone derivatives and open-ring analogues: Preliminary data and computational analysis” (Bioorg Med Chem Lett, 2019).
In brackets after ≈: the same amount, converted by molar mass.

Experiments:
Assay type in all cases: functional
[1] = system: Mycobacterium tuberculosis; assay: Antimycobacterial activity against Streptomycin-resistant Mycobacterium tuberculosis ATCC 35820 assessed as inhibition of bacterial cell growth incubated for 7 days by resazurin microtiter assay; details: ATCC 35820, 168 h
[2] = system: Mycobacterium tuberculosis; assay: Antimycobacterial activity against Rifampicin-resistant Mycobacterium tuberculosis ATCC 35838 assessed as inhibition of bacterial cell growth incubated for 7 days by resazurin microtiter assay; details: ATCC 35838, 168 h
[3] = system: Mycobacterium tuberculosis; assay: Antimycobacterial activity against Isoniazid-resistant Mycobacterium tuberculosis ATCC 35822 assessed as inhibition of bacterial cell growth incubated for 7 days by resazurin microtiter assay; details: ATCC 35822, 168 h
[4] = system: Mycobacterium tuberculosis; assay: Antimycobacterial activity against Pyrazinamide-resistant Mycobacterium tuberculosis ATCC 35828 assessed as inhibition of bacterial cell growth incubated for 7 days by resazurin microtiter assay; details: ATCC 35828, 168 h

Structure (SMILES) | MIC [1] [µM] | MIC [2] [µM] | MIC [3] [µM] | MIC [4] [µM]
O=C1Oc2ccccc2N/C1=C\C(=O)c1cccs1 | 14.7 (≈ 3.99 µg/mL) | 14.7 (≈ 3.99 µg/mL) | 118 (≈ 32 µg/mL) | 14.7 (≈ 3.99 µg/mL)
O=C1Oc2ccccc2N/C1=C\C(=O)N1CCOCC1 | 7.3 (≈ 2 µg/mL) | 7.3 (≈ 2 µg/mL) | > 117 | 3.6 (≈ 0.987 µg/mL)
O=C(NNC(=O)c1ccncc1)C(=O)Nc1ccc(Cl)cc1O | 24 (≈ 8.03 µg/mL) | 12 (≈ 4.02 µg/mL) | > 96 | 12 (≈ 4.02 µg/mL)
COC(=O)/C=C1\Nc2ccccc2OC1=O | 4.5 (≈ 0.986 µg/mL) | 9.1 (≈ 1.99 µg/mL) | > 146 | 4.5 (≈ 0.986 µg/mL)
COC(=O)/C=C1\Nc2ccc(Cl)cc2OC1=O | 3.9 (≈ 0.989 µg/mL) | 3.9 (≈ 0.989 µg/mL) | > 126 | 3.9 (≈ 0.989 µg/mL)
COC(=O)/C=C1\Nc2cc(Cl)ccc2OC1=O | 63 (≈ 16 µg/mL) | 63 (≈ 16 µg/mL) | > 126 | 31 (≈ 7.86 µg/mL)
O=C1Oc2ccccc2N/C1=C\C(=O)c1c[nH]c2ccccc12 | 3.3 (≈ 1 µg/mL) | 3.3 (≈ 1 µg/mL) | > 105 | 3.3 (≈ 1 µg/mL)
O=C(NNC(=O)c1ccncc1)C(=O)Nc1ccccc1O | 26.7 (≈ 8.02 µg/mL) | 3.3 (≈ 0.991 µg/mL) | > 106 | 6.7 (≈ 2.01 µg/mL)
O=C(NNC(=O)c1ccncc1)C(=O)Nc1cc(Cl)ccc1O | 24 (≈ 8.03 µg/mL) | 12 (≈ 4.02 µg/mL) | > 96 | 12 (≈ 4.02 µg/mL)
NNC(=O)c1ccncc1 [ISONIAZID] | 1.8 (≈ 0.247 µg/mL) | 1.8 (≈ 0.247 µg/mL) | > 233 | 1.8 (≈ 0.247 µg/mL)
